Read-outs that look alike come from different tables or passages of the source.

The results in this text go back to patent US7855192B2, “Macrolactams by engineered biosynthesis” (Kosan Biosciences, Inc., priority 2007, dated 2010).

One assay deals with BT-474. In words: cells. The settings on record: Homo sapiens, BT-474, read-out: Inhibitory activity against cancer cells IC50. How it is done:
(§1) The ability of the macrolactams of this invention to inhibit the growth of cancer cells was evaluated using the procedure of Patel, supra. […] SKOV3 is a human ovarian cancer cell line. […] MV-4-11 is yet another human leukemia cell line (acute myeloid leukemia or AML). […] Where an assay was performed multiple times, the range of values measured is given.

The test system of a further assay is HCT-116. In words: cells. Conditions: Homo sapiens, HCT-116, read-out: Inhibitory activity against cancer cells IC50. How it is done: as §1
A further assay deals with K-562. In words: cells. The settings on record: Homo sapiens, K562, read-out: Inhibitory activity against cancer cells IC50. How it is done:
as §1

The test system of the next assay is MX-1. In words: cells. Conditions: Homo sapiens, MX1, read-out: Inhibitory activity against cancer cells IC50. How it is done:
as §1

The test system of a further assay is NCI-ADR. In words: cells. Conditions: Homo sapiens, NCI/ADR-RES, read-out: Inhibitory activity against cancer cells IC50. How it is done: as §1
The test system of the next assay is RPMI-8226. In words: cells. The settings on record: Homo sapiens, RPMI-8226, read-out: Inhibitory activity against cancer cells IC50. How it is done: as §1
A further assay relates to SKBr3. In words: cells. The settings on record: Homo sapiens. How it is done: as §1
The subject of a further assay is SKOV3. As to the kind of experiment: cells. The settings on record: Homo sapiens, SK-OV-3, read-out: Inhibitory activity against cancer cells IC50. How it is done: as §1
For the next assay, the system named is MDA-468. In words: cells. Conditions: read-out: Inhibitory Concentration IC50, NQO1 deficient cancer cells. How it is done: as §1
(§2) As noted above, geldanamycin derivatives in the quinone oxidation state are dependent on the enzyme NQO1 to reduce them to their hydroquinone derivatives for enhanced activity as Hsp90 inhibitors. However, some cancer cells are deficient in NQO1 activity and thus unable to effect the quinone-to-hydroquinone conversion.

The next assay deals with NCI-H596. In words: cells. The settings on record: Homo sapiens, NCI-H596, read-out: Inhibitory Concentration IC50, NQO1 deficient cancer cells. How it is done:
as §1, §2

The next assay has as its system COLO 205. In words: cells. Conditions: Homo sapiens, COLO 205, read-out: Inhibitory activity against cancer cells IC50. How it is done:
as §1

The next assay deals with HT-29. In words: cells. The settings on record: Homo sapiens, HT-29, read-out: Inhibitory activity against cancer cells IC50. How it is done: as §1
The test system of the next assay is MCF-7. In words: cells. The settings on record: Homo sapiens. How it is done: as §1
Another assay concerns MV-4-11. In words: cells. Conditions: Homo sapiens, MV4-11, read-out: Inhibitory activity against cancer cells IC50. How it is done:
as §1

For the next assay, the system named is Hsp70. In words: Induction of Hsp70 in SKBr3 cells as marker of Hsp90 inhibition. The class given is cell-based, human. The settings on record: SKBr3 cells continuously exposed to 1 μM test compound. The text has this: The activity of macrolactams of this invention as Hsp90 inhibitors was confirmed by monitoring the effect of exposure to them on an Hsp90 client protein and a protein induced upon Hsp90 inhibition. […]. The procedure used was that described in Munster et al., Cancer Research 2002, 62, 3132-3137.
[…]. Heat shock protein-70 (“Hsp70”), another protein that performs a chaperone function, is a protein that is induced upon inhibition of Hsp90 (Brodsky & Chiosis, Curr. Topics Med. Chem. 2006, 6 (11), 1215-1225). Thus, the induction of Hsp70 can be used as a marker for the inhibition of Hsp90. […]. GAPDH is an enzyme involved in glycolysis and is expressed constitutively in all cells and is a marker of choice as a loading control in Western Blotting experiments.)

Assay [1] deals with SKBr3 and MCF7 cancer cells. The settings on record: with versus without dicoumarol (NQO1 inhibitor).
[2] abbreviates: SK-BR-3, read-out: Inhibitory activity against cancer cells IC50.
The mark [3] stands for this setting: MCF7, read-out: Inhibitory activity against cancer cells IC50.
[4] abbreviates: SK-BR-3, read-out: Inhibitory Activity IC50, no dicoumarol added.

Consider `CO[C@H]1/C=C\C=C(/C)C(=O)Nc2cc(Cl)c(O)c(c2O)C[C@@H](C)C[C@H](OC)[C@H](O)[C@@H](C)/C=C(\C)[C@@H]1OC(N)=O` [IV-b], for which the IC50 in the assay on BT-474 is 140 nM; with HCT-116, 840 nM; in the assay on K-562, 1400 nM; with MX-1, 440 nM; in the assay on NCI-ADR, 10000 nM; with RPMI-8226 it was 240 nM. The IC50 in the assay on SKBr3 (setting [2]) was 400 to 444 nM; in the assay on SKOV3 it was 340 to 360 nM; with MDA-468, 450 nM; with NCI-H596, 815 nM.
Consider `COC1CC/C=C(\C)C(=O)Nc2cc(F)c(O)c(c2)C[C@@H](C)C[C@H](OC)[C@H](O)[C@@H](C)/C=C(\C)[C@@H]1OC(N)=O` (stereo partly drawn) [III-d], for which the IC50 in the assay on BT-474 was 80 nM; with COLO 205, 38 nM; with HCT-116 it was 280 to 290 nM; with HT-29, 110 nM; in the assay on K-562 it was 290 nM; in the assay with MCF-7 (MCF7, read-out: Inhibitory Activity IC50, dicoumarol added), 161 nM. In addition, the IC50 is 112 nM with MCF-7 (MCF7, read-out: Inhibitory Activity IC50, no dicoumarol added); 73 to 160 nM in the assay on MCF-7 (setting [3]); 31 to 32 nM in the assay with MV-4-11; 66 nM in the assay with MX-1; 3200 to 5000 nM in the assay with NCI-ADR; 66 nM in the assay on RPMI-8226. In addition, the IC50 with SKBr3 (SK-BR-3, read-out: Inhibitory Activity IC50, dicoumarol added) is 69 nM; in the assay with SKBr3 (setting [4]), 42 nM; in the assay on SKBr3 (setting [2]), 34 to 80 nM; in the assay with SKOV3, 230 to 237 nM; with MDA-468 it was 100 nM; in the assay on NCI-H596, 310 nM. In the assay on Hsp70, the “Induction of Hsp70, gel picture FIG. 5” value is “Hsp70 was induced”. The “Change of Hsp90 inhibitory activity in the presence of dicoumarol” value in [1] was “remained substantially unchanged”.
`CO[C@H]1C[C@H](C)Cc2cc(cc(Cl)c2O)NC(=O)/C(C)=C/CC[C@H](OC)[C@@H](OC(N)=O)/C(C)=C/[C@H](C)[C@H]1O` [III-a]: the IC50 in the assay on BT-474 is 57 nM; in the assay on K-562, 74 nM; with MCF-7 (setting [3]) it was 53 to 60 nM; with MX-1, 42 nM; with NCI-ADR it was 640 to 1400 nM; in the assay on RPMI-8226 it was 42 nM. Further, the IC50 is 39 nM with SKBr3 (setting [4]), 36 to 145 nM in the assay on SKBr3 (setting [2]), 102 to 170 nM in the assay on SKOV3 and 90 nM with MDA-468. In addition, the “Induction of Hsp70, gel picture FIG. 5” value with Hsp70 is recorded as “Hsp70 was induced”. The “Change of Hsp90 inhibitory activity in the presence of dicoumarol” value in [1] was “remained substantially unchanged”.
As for `CO[C@H]1/C=C\C=C(/C)C(=O)Nc2ccc(O)c(c2)C[C@@H](C)C[C@H](OC)[C@H](O)[C@@H](C)/C=C(\C)[C@@H]1OC(N)=O` [IV-a], the IC50 with HCT-116 was found to be 177 nM; with SKBr3 (setting [2]), 90 nM.
On to `CO[C@H]1C[C@H](C)Cc2cc(ccc2O)NC(=O)/C(C)=C/CC[C@H](OC)[C@@H](OC(N)=O)/C(C)=C/[C@H](C)[C@H]1O` [III-i], for which the values for the IC50 in the assay with HCT-116, in the assay on MCF-7 (setting [3]) and in the assay on SKBr3 (setting [2]) were 1100 nM, 600 nM and 830 nM, respectively.
For the compound `C=CCNC1=C2C[C@@H](C)C[C@H](OC)[C@H](O)[C@@H](C)/C=C(\C)[C@H](OC(N)=O)[C@@H](OC)/C=C\C=C(/C)C(=O)NC(=CC1=O)C2=O` [Compound 17-AAG, 17-allylamino-17-demethoxygeldanamycin, reference compound], the “Induction of Hsp70, gel picture FIG. 5” value with Hsp70 is given as “Hsp70 was induced”.
Take `CO[C@H]1C[C@H](C)Cc2cccc(c2)NC(=O)/C(C)=C/CC[C@H](OC)[C@@H](OC(N)=O)/C(C)=C/[C@H](C)[C@H]1O` [III-h]: the IC50 is 180 nM with COLO 205; 240 to 242 nM in the assay on HCT-116; 220 nM in the assay with HT-29; 138 to 140 nM in the assay on MCF-7 (setting [3]); 90 to 110 nM in the assay with SKBr3 (setting [2]); 318 nM in the assay with SKOV3.
